# Results taken from patent US20240245682A1, “ALPHA-V-BETA-8 INTEGRIN INHIBITORS AND USES THEREOF” (Pliant Therapeutics, Inc., priority 2022, published 2024).
# “Also recorded” adds a separate entry of the source.
# What was measured:
# [1] = test system: primary human cancer associated fibroblasts (CAFs); test: CAF adhesion to TGFβ latency-associated peptide (LAP), high-content imaging; assay type: cell-based
# Description: (§1) Integrin αVβ1 is expressed in multiple solid tumors and drives the adhesion of cancer-associated fibroblasts (CAFs) to latent TGFβ. In human tumor tissues and in CAFs, αVβ1 protein expression was evaluated via immunohistochemistry (IHC) and custom […] assay, respectively. CAF adhesion to the TGFβ latency-associated peptide (LAP) was quantified in the presence or absence of Compound 39 in vitro by high-content microscopy imaging. The activity of Compound 39 in combination with anti-mPD-1 on fibrotic markers was evaluated in the EMT6 tumor model in vivo by gene expression analysis using the Nanostring® nCounter analysis system. Compound 39-treated human breast tumor tissue was analyzed for fibrotic marker α-smooth muscle actin (αSMA) using immunofluorescence.
# (§2) αvβ1 protein expression was evaluated in human tumor tissues via immunohistochemistry. αvβ1 protein levels in primary human CAFs isolated from pancreatic carcinoma, lung adenocarcinoma, and lung squamous cell carcinoma were quantified via custom electrochemiluminescence assay. CAF adhesion to latency associated peptide (LAP), the integrin-binding region of latent TGF-β, was quantified in the presence or absence of Compound 39 of the examples and a small molecule selective inhibitor of αvβ1 by high-content imaging in vitro. […]
# [2] = test system: human breast tumor tissue; test: Ex vivo cultured human breast tumor tissue, immunofluorescence of fibrotic markers; assay type: cell-based
# Description: as §1, §2
# TKCC-10 PDX = test: Orthotopic TKCC-10 (PDX-10) PDX model of PDAC (Example B12); assay type: in vivo, NSG mice
# Description: Table B-9 depicts the study design to determine the efficacy of selective αvβ1/αvβ8 SMI in the orthotopic ECM-high PDX models of PDAC. Table B-10 depicts the study design for the TKCC-10 PDX model.
# TKCC-10 PDX bearing mice were treated with dose regimen according to the schematic in Table B-9 and FIG. 24A depicts a schematic diagram of the treatment regimen in the TKCC-10 mice. FIG. 24B depicts a graph showing final tumor weight for TKCC-10 PDX bearing mice after treatment with G/A, Compound 39, and Compound 39+G/A. FIG. 24C depicts a graph showing final tumor weight for TKCC-10 PDX bearing mice after treatment with G/A, ADWA-11, and ADWA-11+G/A.
# EMT6 tumors = test: EMT6 (breast) syngeneic tumor model (Example B6); assay type: in vivo, Balb/c mice
# Description: The therapeutic impact of Compound 39 of the examples in combination with anti PD-1 was studied for several […] mouse models, as shown in Table B-3. For each model, four dosing regimens were studied, using a group size of 10 mice per dosing regimen per model, and a total of 40 mice per model.
# Mice were shaved and tumor cells as indicated in Table B-3 were subcutaneously implanted in a 100 μl cell suspension that was subcutaneously injected into the front/rear flank of each mouse (as indicated in Table B-3).
# There was no dosing holiday. Dietary supplements were uniform for all animals in the same group.
# Animals were monitored weekly for changes in tumor volume. Tumors were measured at least once a week using calipers. Tumor volume was calculated using the equation: (longest diameter*shortest diameter^2)/2.
# The study was terminated four weeks after the first dose or when the tumor sizes reached greater than 3000 mm^3, whichever was first. Mice were euthanized and tumors were collected.
# Tumor tissues (50 to 80 mg) were homogenized using metal beads in pre-chilled RINO screw cap tubes, using lysis matrix (MP Lysing Matrix S [⅛″], 2 mL Tube MP Biomedical Cat #116925100) on MP Fast Prep 24 instrument. Tumor RNA extraction from the tumor homogenate used the Ambion Purelink, RNA kit (Cat #12183018A) according to the manufacturers' protocol. A total of 100 ng RNA was used for the Nanostring analysis of the immuno-oncology and fibrosis panel, and 300 ng RNA was used for the analysis of the integrin panel. RNA was hybridized to gene expression Plexset according to the manufacturers' protocol. Hybridized reactions were read on nCounter MAX (Nanostring), and data were analyzed using nCounter software.
# Table B-5 lists the catalog numbers of the antibodies used in the immunohistochemical (IHC) studies. Quantification of staining was done using the HALO software package (Indica Labs, Albaquerque, NM).
# KPC tumors = test: Orthotopic KPC syngeneic model of PDAC (Example B11)
# Description: The preclinical efficacy of Compound 39 of the examples was determined in genetically-defined (LSL-KrasG12D/+; LSL-Trp53R172H/+; Pdx1-Cre (KPC), and Pan02) and genomically diverse patient-derived PDA xenograft models. Clinically relevant combinations with standard of care (SoC) chemotherapy and anti-programmed death receptor-1 antibody (anti mPD-1) were tested by monitoring tumor growth, metastasis, and animal survival. Mechanistic assessment of alterations in the tumor microenvironment (TME) was performed using transcriptomic, immunohistochemical, and immunofluorescence approaches.
# Animals were prepared for injection using standard approved anesthesia. Mice were shaved and tumor cells 500 KPC cells were orthotopically implanted (in pancreas) in a 100 μL cell suspension.
# Tumor cells were allowed to form pancreatic tumors for one week. Mice were randomized into groups and treated with indicated compounds and dose regimens according to the schema outlined in Table B-7.
# Compound 39 was administered in a solution containing 10% v/v ethanol, 70% w/v propylene glycol, and 20% v/v PBS and administered to mice via oral gavage at a dose of 300 mg/kg body weight over the duration of 22 days (for timepoint study) or 80 days (survival study). The mAbs, anti-mPD-1 and anti-αVβ8, were each administered in PBS by intraperitoneal injection at a dose of 10 mg/kg body weight twice a week (for 2 weeks).
# Since these were orthotopic tumors, tumor volume measurement was not possible. Tumor weights were determined at the end of the study. Additionally, body weight of mice and any change in behavior/appearance were monitored twice a week for any signs of discomfort/toxicity.
# The study was terminated either at 22 days after the first dose, or at 80 days for the survival study. Mice were euthanized and tumors were collected. Half of the tumor was snap frozen in liquid nitrogen and the other half was fixed in formalin.
# Formalin (10%) fixed tissues were sent to Histowiz (a clinical research organization providing complete histology services) for paraffin embedding and sectioning. Using standard protocols optimized by Histowiz, tissue sections were stained for hematoxylin and eosin and immunostained for CD8, CD4, Cleaved caspase-3, and FoxP3, which are specific membrane markers for cytotoxic, helper, and regulator T cells, respectively. Additionally, tissues were stained with Pico Sirius Red (PSR) and second harmonic imaging (SHG) analysis was performed to evaluate stromal collagen density.
# [3] = Compound 39+α-PD1 vs vehicle+αPD1, FIG. 48, model not stated
smiles,measurement,setting,value
"Cc1ncnc(Cl)c1C1(C(=O)N[C@@H](CCOCCCCc2ccc3c(n2)NCCC3)C(=O)O)CC1 [Compound 39, N-(1-(4-chloro-6-methylpyrimidin-5-yl)cyclopropane-1-carbonyl)-O-(4-(5,6,7,8-tetrahydro-1,8-naphthyridin-2-yl)butyl)-L-homoserine]",adhesion of CAFs to LAP,"[1]; LUAD, LUSC and pancreatic stellate CAFs, FIG. 103-105","inhibits the adhesion of LUAD, LUSC, and PSC CAFs to TGFβ latency-associated peptide in a dose-dependent manner; also recorded: blocked the binding of CAFs to LAP; also recorded: significantly block in vitro binding of primary human CAFs to LAP"
same,binding of latency associated peptide (LAP) to αvβ1,[1]; cell adhesion assays,prevented
same,reduction of fibroblast activation marker αSMA,"[2]; compared to vehicle-treated tissues, FIG. 106",2.9 fold
same,"expression of fibrotic markers (αSMA, FAP)",[2]; in words,decreases; also recorded: reduced expression of fibrotic markers αSMA and FAP
same,mean tumor weight,"TKCC-10 PDX; 30 days, Compound 39 300 mg/kg BID oral, G 100 mg/kg / A 30 mg/kg i.p. once per week, FIG. 24B",0.798 ± 0.17 g
same,mean number of lung metastases,TKCC-10 PDX; FIG. 25D,4.1±3.2
same,tumor weight / tumor growth,"TKCC-10 PDX; in words, FIG. 24C, 73",significantly blocked tumor growth and improved the response to the standard of care (SOC) chemotherapy G/A
same,IFNγ gene signature,EMT6 tumors; [3],increases
same,TGFβ gene signatures,EMT6 tumors; [3],Reduces
same,fibrotic markers and tissue fibrosis in the tumor microenvironment,"EMT6 tumors; Nanostring gene expression, Pico Sirius red, FIG. 107-112",reduces fibrotic markers; also recorded: significantly reduced fibrosis
same,TGFβ activity,"EMT6 tumors; compared to vehicle, FIG. 33, model not given",reduced TGFβ activity
same,expression of IFNγ-regulated gene Granzyme B,"EMT6 tumors; compared to vehicle, FIG. 34A",increased expression
same,expression of IFNγ-regulated gene IFNγ,"EMT6 tumors; compared to vehicle, FIG. 34B",increased expression
same,expression of IFNγ-regulated gene CXCL9,"EMT6 tumors; compared to vehicle, FIG. 34C",increased expression
same,expression of IFNγ-regulated gene PDL1,"EMT6 tumors; compared to vehicle, FIG. 34D",increased expression
same,mean tumor weight,"KPC tumors; 22 day timepoint, Compound 39 300 mg/kg oral gavage, mAbs 10 mg/kg i.p., FIG. 20B",0.44 ± 0.9 g
same,"collagen content (PSR, SHG imaging)","KPC tumors; FIG. 22A, 22B",significantly reduced the collagen content
same,reduction in tumor weight compared with vehicle,KPC tumors; FIG. 79,45%
same,"avg % CD8^+ T cells/ROI, invasive (leading) edge","KPC tumors; IHC, FIG. 21A",3.06±1.05%
same,"avg % CD8^+ T cells/ROI, internal tumor","KPC tumors; IHC, FIG. 21B",2.02±0.77%
same,disease progression / overall survival,"KPC tumors; in words, FIG. 23, 46, 47",delayed disease progression in vivo; also recorded: improved overall survival compared to α-PD-1
same,CD4^+ T cells,"KPC tumors; in words, compared to vehicle, FIG. 21E, 21F",did not show any significant difference in CD4^+ T cells
same,median survival (median OS),"KPC tumors; survival study up to 80 days, FIG. 23B, 23C",45 days
